These results are taken from patent US5233036A, “Rapamycin alkoxyesters” (American Home Products Corporation, priority 1992, dated 1993).

Converted amounts (≈) assume the structure as drawn. Read-outs that look alike come from different tables or passages of the source.

In one assay the test system is thymocyte proliferation. Kind of assay: Comitogen-induced thymocyte proliferation procedure (LAF). It counts as cell-based, BALB/c mice. The following applies: for LAF (ratio): ratio relative to rapamycin (rapamycin 1.0), 72 h culture, PHA and IL-1. How it is done: (§1) Immunosuppressive activity was evaluated in an in vitro standard pharmacological test procedure to measure lymphocyte proliferation (LAF) and in two in vivo standard pharmacological test procedures. The first in vivo procedure was a popliteal lymph node (PLN) test procedure which measured the effect of compounds of this invention on a mixed lymphocyte reaction and the second in vivo procedure evaluated the survival time of a pinch skin graft.
Briefly, cells from the thymus of normal BALB/c mice are cultured for 72 hours with PHA and IL-1 and pulsed with tritiated thymidine during the last six hours. […] Cells are harvested and incorporated; radioactivity is determined. Inhibition of lymphoproliferation is assessed in percent change in counts per minute from non-drug treated controls. The results are expressed by the following ratio, or as the percent inhibition of lymphoproliferation of 1 μM. [formula]

A further assay deals with pinch skin graft. Kind of assay: Survival time of pinch skin graft. In kind it is in vivo, male DBA/2 donors transplanted to male BALB/c recipients. The note with it: intraperitoneal; mean ± S.D. The method, then:
as §1
The second in vivo test procedure is designed to determine the survival time of pinch skin graft from male DBA/2 donors transplanted to male BALB/c recipients. The method is adapted from Billingham R. E. and Medawar P. B., J. Exp. Biol. 28:385-402, (1951). Briefly, a pinch skin graft from the donor is grafted on the dorsum of the recipient as a homograft, and an autograft is used as control in the same region. […] Untreated recipients serve as rejection control. The graft is monitored daily and observations are recorded until the graft becomes dry and forms a blackened scab. This is considered as the rejection day. The mean graft survival time (number of days±S.D.) of the drug treatment group is compared with the control group.

Assay [1] concerns Candida albicans. Kind of assay: Plate test procedure for measurement of inhibition (antifungal activity). It counts as cell-based. How it is done: The following represents the typical procedure used. Compound to be tested was placed on sterile dried 1/4" plate disks, and allowed to dry. Agar plates were seeded with fungi and allowed to solidify. The impregnated disks were placed on the seeded Agar surface and incubated for the time required for the particular culture. Results are expressed in MIC (μg/ml) to inhibit growth.

In assay [2] the test system is mixed lymphocyte reaction. Kind of assay: Popliteal lymph node (PLN) test procedure (mixed lymphocyte reaction in vivo). Details: species or system C3H mice (recipient), BALB/c donors. The note with it: ratio relative to rapamycin (rapamycin 1.0); drug daily p.o. Day 0 to Day 4. The method, then:
as §1
A mixed lymphocyte reaction (MLR) occurs when lymphoid cells from genetically distinct animals are combined in tissue culture. Each stimulates the other to undergo blast transformation which results in increased DNA synthesis that can be quantified by the incorporation of tritiated thymidine. Since stimulating a MLR is a function of disparity at Major Histocompatibility antigens, as in vivo popliteal lymph node (PLN) test procedure closely correlates to host vs. graft disease. Briefly, irradiated spleen cells from BALB/c donors are injected into the right hind foot pad of recipient C3H mice. The drug is given daily, p.o. from Day 0 to Day 4. On Day 3 and Day 4, tritiated thymidine is given i.p., b.i.d.. On Day 5, the hind popliteal lymph nodes are removed and dissolved, and radioactivity counted. […] Percent suppression is calculated using the non-drug treated animals as allogenic control. […]

The test system of assay [3] is Candida albicans. The following applies: particularly against Candida albicans, both in vitro and in vivo; cited from earlier work.
For assay [4] the following is noted: alone or in combination with picibanil; cited from earlier work.
The test system of assay [5] is experimental allergic encephalomyelitis. The following applies: model for multiple sclerosis; cited from earlier work.
The mark [6] stands for this setting: ATCC38246, strain ATCC 38246, read-out: MIC.
Setting [7] is: ATCC38247, strain ATCC 38247, read-out: MIC.
Where [8] appears, read: ATCC38248, strain ATCC 38248, read-out: MIC.

Broadly, the MIC is the least concentration at which growth counts as inhibited. On to `CCOC(=O)CO[C@@H]1CC[C@@H](C[C@@H](C)[C@@H]2CC(=O)[C@H](C)/C=C(\C)[C@@H](O)[C@@H](OC)C(=O)[C@H](C)C[C@H](C)/C=C/C=C/C=C(\C)[C@@H](OC)C[C@@H]3CC[C@@H](C)[C@@](O)(O3)C(=O)C(=O)N3CCCC[C@H]3C(=O)O2)C[C@H]1OC` [Example 1, 42-Deoxy-42-(2-ethoxy-2-oxoethoxy)rapamycin], for which, in the assay on thymocyte proliferation, the “suppression of T-cell proliferation (LAF), in words” value is listed as “suppressed T-cell proliferation”. In the assay with thymocyte proliferation, the “LAF (ratio)” value came out at 0.46. Further, the “Skin graft survival time (days + SD)” value in the assay with pinch skin graft is listed as 7.5 ± 1.2 days. Moreover, the MIC against Candida albicans [1] (ATCC10231) turned out to be 0.5 µg/mL (≈ 0.5 µM); in the assay with Candida albicans [1] (setting [6]), 0.1 µg/mL (≈ 0.1 µM); with Candida albicans [1] (setting [7]), 0.2 µg/mL (≈ 0.2 µM); in the assay on Candida albicans [1] (setting [8]) it was 0.1 µg/mL (≈ 0.1 µM); with Candida albicans [1] (strain 3669, read-out: MIC), 0.05 µg/mL (≈ 0.05 µM).
Regarding `CO[C@H]1C[C@@H]2CC[C@@H](C)[C@@](O)(O2)C(=O)C(=O)N2CCCC[C@H]2C(=O)O[C@H]([C@H](C)C[C@@H]2CC[C@@H](OCC(=O)OC(C)(C)C)[C@H](OC)C2)CC(=O)[C@H](C)/C=C(\C)[C@@H](O)[C@@H](OC)C(=O)[C@H](C)C[C@H](C)/C=C/C=C/C=C/1C` [Example 2, 42-Deoxy-42-[2-(1,1-dimethylethoxy)-2-oxoethoxy]rapamycin], the “suppression of T-cell proliferation (LAF), in words” value in the assay with thymocyte proliferation is “suppressed T-cell proliferation”. Moreover, the “LAF (ratio)” value in the assay on thymocyte proliferation was found to be 0.27. Moreover, the MIC with Candida albicans [1] (ATCC10231, strain ATCC 10231, read-out: MIC) is 0.05 µg/mL (≈ 0.0486 µM); with Candida albicans [1] (setting [6]), 0.2 µg/mL (≈ 0.194 µM); in the assay on Candida albicans [1] (setting [7]), 0.05 µg/mL (≈ 0.0486 µM); with Candida albicans [1] (setting [8]) it was 0.1 µg/mL (≈ 0.0972 µM); with Candida albicans [1] (strain 3669, read-out: MIC), 0.2 µg/mL (≈ 0.194 µM).
On to `CO[C@H]1C[C@@H]2CC[C@@H](C)[C@@](O)(O2)C(=O)C(=O)N2CCCC[C@H]2C(=O)O[C@H]([C@H](C)C[C@@H]2CC[C@@H](O)[C@H](OC)C2)CC(=O)[C@H](C)/C=C(\C)[C@@H](O)[C@@H](OC)C(=O)[C@H](C)C[C@H](C)/C=C/C=C/C=C/1C` [Rapamycin, rapamycin], for which the “PLN (ratio)” value in assay [2] is 1.0. Further, the antifungal activity entry in the assay with Candida albicans [3] is on record as “found to have antifungal activity”. In addition, the antitumor activity entry in assay [4] is “shown to have antitumor activity”. Besides, the “effectiveness in experimental allergic encephalomyelitis model” value in assay [5] is given as “effective in the experimental allergic encephalomyelitis model”.
